Measurements from ChEMBL document CHEMBL5233268, “Application of marine natural products in drug research” (Bioorg Med Chem, 2021).
In brackets after ≈: the same amount, converted by molar mass.

Key:
[1] = test system: KB; test: Cytotoxicity against human KB cells assessed as inhibition of cell growth; assay type: functional, cell-based
[2] = molecular target: 5'-nucleotidase (Homo sapiens, UniProt P21589); test: Inhibition of human N-terminal Ecto-5'-nucleotidase
5'-nucleotidase, sequence (P21589 whole entry): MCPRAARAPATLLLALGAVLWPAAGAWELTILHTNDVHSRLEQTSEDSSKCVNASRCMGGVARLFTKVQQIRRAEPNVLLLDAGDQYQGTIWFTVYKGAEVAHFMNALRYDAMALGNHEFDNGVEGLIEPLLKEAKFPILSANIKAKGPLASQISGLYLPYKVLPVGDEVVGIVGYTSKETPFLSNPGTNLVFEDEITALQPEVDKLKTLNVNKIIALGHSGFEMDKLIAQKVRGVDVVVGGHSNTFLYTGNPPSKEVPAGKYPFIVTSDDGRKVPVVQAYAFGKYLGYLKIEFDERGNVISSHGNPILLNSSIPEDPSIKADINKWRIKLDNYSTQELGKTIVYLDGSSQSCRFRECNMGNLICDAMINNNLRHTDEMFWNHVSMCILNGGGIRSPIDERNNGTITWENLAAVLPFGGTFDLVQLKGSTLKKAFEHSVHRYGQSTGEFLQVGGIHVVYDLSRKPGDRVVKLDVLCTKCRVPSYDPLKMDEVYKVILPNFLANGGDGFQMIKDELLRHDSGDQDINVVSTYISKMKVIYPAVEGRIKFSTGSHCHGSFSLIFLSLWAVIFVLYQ

SMILES | IC50 [1] | IC50 [2]
COc1ccc(C[C@H]2NC(=O)/C=C/C[C@@H]([C@H](C)[C@H]3O[C@@H]3c3ccccc3)OC(=O)[C@H](CC(C)C)OC(=O)CCNC2=O)cc1 [ARENASTATIN A] | 0.005 ng/mL (≈ 0.00824 nM) | –
Nc1ncc(/C=C/CNC(=O)c2ccc[nH]2)[nH]1 [CLATHRODIN] | – | 1600 nM
Nc1ncc(/C=C/CNC(=O)c2cc(Br)c(Br)[nH]2)[nH]1 [OROIDIN] | – | 1600 nM
